Assays:
[1] = target: T1, acyl-CoA: cholesterol acyltransferase (ACAT) (Rattus norvegicus, UniProt Q7TQM4); experiment: ACAT inhibitory activity (labeled cholesterol ester formation from [1-14C]oleoyl-CoA and endogenous cholesterol; microsome fraction of rat tunica mucosa intestini tenuis); assay type: biochemical, Spregue-Dawley male rat; details: 10^-6 M; read-out: ACAT inhibitory rate (labeled cholesterol ester formation inhibitory rate)
T1 construct: microsome fraction of the tunica mucosa intestini tenuis; from tissue; host or cells: microsome fraction of small-intestinal mucosa, Sprague-Dawley male rat (six weeks old, fasted 20 hours)
T1 sequence (Q7TQM4 1-524): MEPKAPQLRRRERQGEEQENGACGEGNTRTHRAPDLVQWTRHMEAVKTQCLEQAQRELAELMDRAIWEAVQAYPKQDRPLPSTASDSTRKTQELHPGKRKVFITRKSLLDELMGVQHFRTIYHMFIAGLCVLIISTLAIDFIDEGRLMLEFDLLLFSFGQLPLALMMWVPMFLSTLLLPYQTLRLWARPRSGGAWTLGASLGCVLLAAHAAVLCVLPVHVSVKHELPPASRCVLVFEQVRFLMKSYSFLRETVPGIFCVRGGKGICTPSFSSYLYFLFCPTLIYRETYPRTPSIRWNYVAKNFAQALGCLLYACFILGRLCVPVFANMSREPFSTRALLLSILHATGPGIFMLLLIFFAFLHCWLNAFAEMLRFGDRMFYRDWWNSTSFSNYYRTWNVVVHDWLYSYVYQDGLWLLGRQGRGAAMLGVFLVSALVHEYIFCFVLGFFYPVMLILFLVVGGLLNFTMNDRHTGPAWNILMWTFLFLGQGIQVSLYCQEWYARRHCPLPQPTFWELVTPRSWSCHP
Procedure: An enzyme specimen ACAT was prepared from a microsome fraction of the tunica mucosa intestini tenuis of Spregue-Dawley male rat (six week old) which had been subjected to fasting for 20 hours according to the method described in Journal of Lipid Research, 24, 1127 (1982).
ACAT activity was calculated by measuring an amount of a labeled cholesterol ester formed from [1-^14 C]oleoyl-CoA and endogenous cholesterol according to the process of Helgerud et al. [Journal of Lipid Research, 22, 271 (1981)].
ACTA inhibitory activity of compounds tested are shown in Table 1 by a labeled cholesterol ester formation inhibitory rate (%) obtained by addition of the test compounds in an amount of 10^-6 M.

[2] = target: T1, acyl-CoA: cholesterol acyltransferase (ACAT); experiment: as above; assay type: biochemical, Spregue-Dawley male rat; details: 0.5 × 10^-6 M; read-out: ACAT inhibitory rate (labeled cholesterol ester formation inhibitory rate)

| inhibition at 1 µM [1] | inhibition at 0.5 µM [2] | SMILES |
| --- | --- | --- |
| 98.7% | – | CCc1cc2c(-c3ccccc3Cl)c(NC(=O)Nc3ccc(F)cc3F)cnc2s1 [Example 1, N-[4-(2-chlorophenyl)-2-ethylthieno[2,3-b]pyridin-5-yl]-N'-(2,4-difluorophenyl)urea] |
| 93.6% | – | CCc1cc2c(-c3ccccc3Cl)c(NC(=O)Nc3ccc(Cl)cc3)cnc2s1 [Example 4, N-(4-chlorophenyl)-N'-[4-(2-chlorophenyl)-2-ethylthieno[2,3-b]pyridin-5-yl]urea] |
| 93.9% | – | Cc1sc2ncc(NC(=O)Nc3ccc(F)cc3F)c(-c3ccccc3Cl)c2c1C [Example 5, N-[4-(2-chlorophenyl)-2,3-dimethylthieno[2,3-b]pyridin-5-yl]-N'-(2,4-difluorophenyl)urea] |
| 95.1% | – | Cc1cc2c(-c3ccccc3Cl)c(NC(=O)Nc3ccc(F)cc3F)cnc2s1 [Example 10, N-[4-(2-chlorophenyl)-2-methylthieno[2,3-b]pyridin-5-yl]-N'-(2,4-difluorophenyl)urea] |
| 94.5% | – | Cc1ccccc1-c1c(NC(=O)Nc2ccc(F)cc2F)cnc2sc(Cl)cc12 [Example 11, N-[2-chloro-4-(2-methylphenyl)thieno[2,3-b]pyridin-5-yl]-N'-[2,4-difluorophenyl)urea] |

Further lines, the compound ahead of its results:

| SMILES | inhibition at 1 µM [1] | inhibition at 0.5 µM [2] |
| --- | --- | --- |
| CCc1cc2c(-c3ccccc3Cl)c(NC(=O)C=Cc3cc(OC)c(OC(C)=O)c(OC)c3)cnc2s1 [Example 2, 5-(4-Acetoxy-3,5-dimethoxycinnamoylamino)-4-(2-chlorophenyl)-2-ethylthieno[2,3-b]pyridine] | 74.3% | – |
| CCc1cc2c(-c3ccccc3Cl)c(NC(=O)Nc3ccc(F)cc3F)c(=O)n(C)c2s1 [Example 3, N-[4-(2-chlorophenyl)-6,7-dihydro-2-ethyl-7-methyl-6-oxothieno[2,3-b]pyridin-5-yl]-N'-(2,4-difluorophenyl)urea] | 99.6% | – |
| O=C(Nc1ccc(F)cc1F)Nc1cnc2sc3c(c2c1-c1ccccc1Cl)CCC3 [Example 6, N-[4-(2-chlorophenyl)-6,7-dihydro-5H-cyclopenta[1',2':5,4]thieno[2,3-b]pyridin-3-yl]-N'-(2,4-difluorophenyl)urea] | 96.3% | – |
| O=C(Nc1cnc2sc3c(c2c1-c1ccccc1Cl)CCC3)c1ccc(F)cc1F [Example 7, 4-(2-chlorophenyl)-3-(2,4-difluorobenzoylamino)-6,7-dihydro-5H-cyclopenta[1',2':5,4]thieno[2,3-b]pyridine] | 34.4% | – |
| O=C(Cc1ccc(F)cc1F)Nc1cnc2sc3c(c2c1-c1ccccc1Cl)CCC3 [Example 8, 4-(2-chlorophenyl)-3-(2,4-difluorophenylacetylamino)-6,7-dihydro-5H-cyclopenta-[1',2':5,4]thieno-[2,3-b]pyridine] | 94.4% | – |
| Cc1ccccc1-c1c(NC(=O)Nc2ccc(F)cc2F)cnc2sccc12 [Example 9, N-(2,4-difluorophenyl)-N'-[4-(2-methylphenyl)-thieno[2,3-b]pyridin-5-yl]urea] | 60.2% | – |
| O=C(Nc1ccc(F)cc1F)Nc1cnc2sc3c(c2c1-c1ccccc1Cl)CCCC3 [Example 12, N-[4-(2-chlorophenyl)-5,6,7,8-tetrahydro[1]-benzothieno[2,3-b]pyridin-3-yl]-N'-(2,4-difluorophenyl)urea] | – | 82.3% |
| CCc1cc2c(-c3ccccc3OC)c(NC(=O)Nc3cc(C)c(OC(C)=O)c(C)c3)cnc2s1 [Example 13, N-(4-acetoxy-3,5-dimethylphenyl)-N'-[2-ethyl-4-(2-methoxyphenyl)thieno[2,3-b]pyridin-5-yl]urea] | 97.5% | – |
| CCc1cc2c(-c3ccccc3OC)c(NC(=O)Nc3cc(OC)c(OC(C)=O)c(OC)c3)cnc2s1 [Example 14, N-(4-acetoxy-3,5-dimethoxyphenyl)-N'-[2-ethyl-4-(2-methoxyphenyl)thieno[2,3-b]pyridin-5-yl]urea] | 91.9% | – |
